Tests used:
[1] = biological target: T1, Prostaglandin G/H synthase 1 (Ovis aries, UniProt P05979); experiment: Inhibition of ovine COX-1
T1 sequence (P05979 whole entry): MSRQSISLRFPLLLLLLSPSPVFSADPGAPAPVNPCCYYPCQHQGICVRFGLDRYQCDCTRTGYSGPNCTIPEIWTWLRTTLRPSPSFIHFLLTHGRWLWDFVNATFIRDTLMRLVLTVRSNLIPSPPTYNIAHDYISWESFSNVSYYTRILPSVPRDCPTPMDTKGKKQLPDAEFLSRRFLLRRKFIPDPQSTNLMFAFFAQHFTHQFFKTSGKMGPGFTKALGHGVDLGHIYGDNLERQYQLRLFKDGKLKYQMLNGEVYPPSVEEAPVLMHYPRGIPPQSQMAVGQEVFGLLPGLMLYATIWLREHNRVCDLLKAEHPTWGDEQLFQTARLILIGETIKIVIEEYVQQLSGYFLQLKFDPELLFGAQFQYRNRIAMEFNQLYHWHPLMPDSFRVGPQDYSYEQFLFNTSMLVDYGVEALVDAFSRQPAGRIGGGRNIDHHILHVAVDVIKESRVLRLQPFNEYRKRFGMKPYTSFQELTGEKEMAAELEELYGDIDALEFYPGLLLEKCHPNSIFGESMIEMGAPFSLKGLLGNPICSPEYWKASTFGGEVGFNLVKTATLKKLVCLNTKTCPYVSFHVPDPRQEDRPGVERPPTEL

[2] = Inhibition of soybean lipoxygenase; parameters: species or system Glycine max
[3] = biological target: T2, Polyunsaturated fatty acid 5-lipoxygenase (Homo sapiens, UniProt P09917); experiment: Inhibition of 5-LOX in human PMNL cells; format: cell-based
T2 sequence (P09917 whole entry): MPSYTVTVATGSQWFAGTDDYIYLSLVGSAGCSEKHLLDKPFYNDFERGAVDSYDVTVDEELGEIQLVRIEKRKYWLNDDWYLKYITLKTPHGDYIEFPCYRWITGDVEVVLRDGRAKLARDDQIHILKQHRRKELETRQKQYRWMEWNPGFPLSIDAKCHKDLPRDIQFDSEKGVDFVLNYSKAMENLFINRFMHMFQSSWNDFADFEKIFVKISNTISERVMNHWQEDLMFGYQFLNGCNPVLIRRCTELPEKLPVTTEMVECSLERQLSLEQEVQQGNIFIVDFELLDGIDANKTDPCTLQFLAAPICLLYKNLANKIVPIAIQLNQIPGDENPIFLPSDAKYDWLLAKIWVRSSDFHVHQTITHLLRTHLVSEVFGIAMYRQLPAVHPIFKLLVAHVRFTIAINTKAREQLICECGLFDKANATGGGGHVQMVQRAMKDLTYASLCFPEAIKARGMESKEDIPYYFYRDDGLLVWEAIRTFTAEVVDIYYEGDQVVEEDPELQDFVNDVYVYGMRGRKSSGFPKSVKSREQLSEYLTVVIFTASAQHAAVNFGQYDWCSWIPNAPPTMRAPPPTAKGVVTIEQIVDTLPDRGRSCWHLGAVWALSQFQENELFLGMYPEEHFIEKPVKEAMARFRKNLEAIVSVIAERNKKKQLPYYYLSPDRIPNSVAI

[4] = Selectivity ratio of IC50 for ovine COX-1 to IC50 for human COX-2
[5] = biological target: T3, Prostaglandin G/H synthase 2 (Homo sapiens, UniProt P35354); experiment: Inhibition of human COX-2
T3 sequence (P35354 whole entry): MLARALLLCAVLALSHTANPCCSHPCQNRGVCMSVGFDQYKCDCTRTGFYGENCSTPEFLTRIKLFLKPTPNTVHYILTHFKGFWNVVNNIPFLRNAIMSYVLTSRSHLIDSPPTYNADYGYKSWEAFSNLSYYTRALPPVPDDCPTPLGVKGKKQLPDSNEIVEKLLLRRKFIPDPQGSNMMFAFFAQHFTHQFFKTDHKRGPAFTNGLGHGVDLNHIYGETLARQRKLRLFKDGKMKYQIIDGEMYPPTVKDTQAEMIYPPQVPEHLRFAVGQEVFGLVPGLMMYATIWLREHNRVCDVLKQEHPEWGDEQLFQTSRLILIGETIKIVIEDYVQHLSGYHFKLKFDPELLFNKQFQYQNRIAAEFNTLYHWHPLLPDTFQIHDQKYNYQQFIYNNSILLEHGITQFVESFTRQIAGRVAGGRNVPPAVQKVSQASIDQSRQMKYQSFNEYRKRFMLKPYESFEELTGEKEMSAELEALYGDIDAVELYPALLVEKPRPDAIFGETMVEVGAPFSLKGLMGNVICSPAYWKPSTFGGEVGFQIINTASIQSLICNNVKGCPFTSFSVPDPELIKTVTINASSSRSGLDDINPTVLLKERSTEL

[6] = biological target: Carbonic anhydrase 2 (Homo sapiens, UniProt P00918); experiment: Inhibition of recombinant human carbonic anhydrase II incubated for 30 mins by spectrophotometric analysis
[7] = test system: Rattus norvegicus; experiment: Anti-inflammatory activity against carrageenan-induced paw edema in Wistar albino rat assessed as inhibition of paw edema at 50 mg/kg, sc administered for 14 days relative to control; format: functional; parameters: scale not given: the % may be the effect or the level left; conditions: time 14 day
[8] = biological target: T3, Prostaglandin G/H synthase 2; experiment: Inhibition of COX-2 (unknown origin) by Enzyme immune assay
[9] = test system: RAW264.7; experiment: Anti-inflammatory activity against mouse RAW264.7 cells assessed as inhibition of LPS-induced TNF-alpha production at 10 uM pre-incubated with LPS-stimulation for 2 hrs followed by compound addition and measured after 22 hrs by ELISA analysis relative to control; format: functional; parameters: scale not given: the % may be the effect or the level left; conditions: time 24 hrs
[10] = test system: RAW264.7; experiment: Anti-inflammatory activity against mouse RAW264.7 cells assessed as inhibition of LPS-induced IL-6 production at 10 uM pre-incubated with LPS-stimulation for 2 hrs followed by compound addition and measured after 22 hrs by ELISA analysis relative to control; format: functional; parameters: scale not given: the % may be the effect or the level left; conditions: time 24 hrs
[11] = Inhibition of human recombinant sPLA2-V
[12] = test system: Rattus norvegicus; experiment: Anti-inflammatory activity against carrageenan-induced paw edema in Wistar albino rat assessed as inhibition of paw edema; format: functional

With `O=C1c2ccccc2C(=O)N1c1nc2cc([N+](=O)[O-])ccc2n1Cc1cccc(-c2ccccc2)c1` the IC50 [1] was 9850 nM, the IC50 [2] was 1020 nM and the IC50 [3] was 320 nM. For the same compound, the Ratio IC50 [4] was 9.85 and the IC50 [5] was 1000 nM.
In the case of `NS(=O)(=O)c1ccc(NCCC(=O)N/N=C/c2ccc(-c3ccc(Br)s3)cc2)cc1`, the IC50 [6] is reported as 110 nM.
`COc1ccnc(Nc2nn3c(SC)c(C#N)c(O)nc3c2C#N)c1` gave an Activity [7] of 46%, an IC50 [8] of 1110 nM and an Activity [9] of 89%. For the same compound, the Activity [10] was 80%, the IC50 [11] was 1000 nM and the ED50 [12] was 35 mg/kg.

Reference: ChEMBL document CHEMBL5543066, “Dual COX-2/15-LOX inhibitors: A new avenue in the prevention of cancer” (Eur J Med Chem, 2023)
